From PubChem BioAssay AID651676 (Sanford-Burnham Center for Chemical Genomics, 2012)
Calls of active or inactive are those of the source.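 Rule for the calls: active = EC50 concentration giving half the maximal stem cell survival boost at or below 20 µM; inactive = the rest.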

System: hiPSC single-cell survival, ATPlite luminescence
Experiment: hiPSC dissociated-cell viability enhancement – luminescence, SAR follow-up (AID 651676)

**Q.** With `NC(=O)c1ccc(NC(=O)CCC(=O)c2cccs2)cc1` as the compound, how does the EC50 read?
**A.** Its EC50 is 10.5 µM.

**Q.** `O=C(Nc1nc(-c2ccncc2)cs1)C1COc2ccccc2O1` (stereo not drawn) was tested. Which EC50 did it give?
**A.** Its EC50 is 3.63 µM.

**Q.** With `COc1ccc(Cn2c(O)c(C=NCCCn3ccnc3)c(=O)[nH]c2=O)cc1` as the compound, how does the EC50 read?
**A.** The EC50 was > 80 µM (inactive).

**Q.** With `O=C(Nc1ccncc1)c1cc(S(=O)(=O)N2CCCC2)ccc1Cl` as the compound, how does the EC50 read?
**A.** Its EC50 is 20.6 µM (inactive).

**Q.** How did the EC50 turn out when `O=C(OCn1ncc(Cl)c(Cl)c1=O)c1cccc(C(F)(F)F)c1` was run?
**A.** Its EC50 is 21.6 µM (inactive).

**Q.** `CC(C)n1c(O)c(C2c3cc(Cl)ccc3Oc3[nH]c(=O)n(C(C)C)c(=O)c32)c(=O)[nH]c1=O` (stereo not drawn) was tested. Which EC50 did it give?
**A.** Its EC50 is 42.3 µM (inactive).

**Q.** Which EC50 does the source give for `CC(C)NC(=O)c1ccc2c(c1)S(=O)(=O)c1ccccc1C2=O` here?
**A.** Its EC50 is > 80 µM (inactive).

**Q.** With `O=S(=O)(c1cccc2cnccc12)N1CCCNCC1` as the compound, how does the EC50 read?
**A.** The EC50 was 7.12 µM.

**Q.** How did the EC50 turn out when `Cn1c(=O)c2c(ncn2CC(=O)NCc2cccnc2)n(C)c1=O` was run?
**A.** The EC50 was > 80 µM (inactive).

**Q.** `COc1ccc(CS(=O)(=O)/C(Cl)=C(/Cl)C(=O)Nc2ccc(OC)nc2)cc1` was tested. Which EC50 did it give?
**A.** The EC50 was 14.1 µM.

**Q.** Which EC50 does the source give for `O=C(Nc1ccncc1)c1cc(S(=O)(=O)N2CCOCC2)ccc1Cl` here?
**A.** Its EC50 is 26.3 µM (inactive).

**Q.** Which EC50 does the source give for `COc1ccc(NC(=O)/C(Cl)=C(/Cl)S(=O)(=O)Cc2ccc(C)cc2)cn1` here?
**A.** Its EC50 is 16.6 µM.

**Q.** For `O=C(OCn1ncc(Br)c(Br)c1=O)c1ccccc1Cl`, which EC50 is on record?
**A.** Its EC50 is 6.27 µM.
